According to patent US20250282749A1 (Tango Therapeutics, Inc., priority 2022, published 2025):
pIC50: −log10 of the molar value.

Columns and labels:
Assay type in all cases: cell-based
[1] = system: PRMT5 (SDMA) in HAP1 MTAP-intact cell line; assay: SDMA in-cell western assay, HAP1 MTAP-intact cell line; conditions: Homo sapiens, HAP1 MTAP-intact cell line (endogenous MTAP), read-out: Hap 1 MTAP intact IC50
Source text: (§1) HAP1 MTAP-intact is a cell line in which endogenous levels of MTAP are expressed, and HAP1 MTAP-deleted is an MTAP-null cell line.

[2] = system: HAP1 MTAP-deleted cell line; assay: viability assay for the MTAP-deleted cell line; conditions: Homo sapiens
[3] = system: PRMT5 (SDMA) in HAP1 MTAP-deleted cell line; assay: SDMA in-cell western assay, HAP1 MTAP-deleted cell line; conditions: for pIC50 / IC90: Homo sapiens, SDMA in-cell western, HAP1 MTAP-deleted (MTAP-null) cell line; for Hap1 MTAP intact/deleted ratio: ratio of SDMA in-cell western IC50 in HAP1 MTAP-intact to IC50 in HAP1 MTAP-deleted cell line
Source text: as §1

Compound | pIC50 [1] | pIC50 [2] | pIC50 [3] | IC90 [3] [nM] | Hap1 MTAP intact/deleted ratio [3]
CC(C)C(=O)N1C[C@H](c2cccc(Cl)c2)N(C(=O)C(=O)Nc2cnc(N)c(C3CC3)c2)C[C@H]1C [Compound 133, N-(6-amino-5-cyclopropylpyridin-3-yl)-2-((2S,5R)-2-(3-chlorophenyl)-4-isobutyryl-5-methylpiperazin-1-yl)-2-oxoacetamide] | < 7.30 | > 7.00 | 7.30 to 8.30 | < 75 | B (an IC50 ratio greater than or equal to 15 fold but lower than 30 fold)
Cc1cc(NC(=O)C(=O)N2C[C@@H](C)N(C(=O)C(C)(C)CN3CCN(C)CC3)C[C@@H]2c2ccccc2)cnc1N [Compound 134] | 7.30 to 8.30 | > 7.00 | 7.30 to 8.30 | > 125 | C (an IC50 ratio of less than 15 fold)
C[C@@H]1CN(C(=O)C(=O)Nc2cnc(N)c3cn[nH]c23)[C@@H](c2ccc(F)cc2)CN1C [Compound 135] | < 7.30 | 6.00 to 7.00 | > 8.30 | 75 to 125 | A (an IC50 ratio greater than or equal to 30 fold)
Cc1cc(NC(=O)C(=O)N2C[C@@H](C)N(C(=O)C3(C(F)(F)F)CC3)C[C@@H]2c2cccc(C(F)(F)F)c2)cnc1N [Compound 137, N-(6-amino-5-methylpyridin-3-yl)-2-((2S,5R)-5-methyl-4-(1-(trifluoromethyl)cyclopropanecarbonyl)-2-(3-(trifluoromethyl)phenyl)piperazin-1-yl)-2-oxoacetamide] | < 7.30 | > 7.00 | 7.30 to 8.30 | > 125 | B (an IC50 ratio greater than or equal to 15 fold but lower than 30 fold)
Cc1cc(NC(=O)C(=O)N2C[C@@H](C)N(C(=O)C3(C(F)(F)F)CC3)C[C@@H]2c2ccsc2)cnc1N [Compound 138, N-(6-amino-5-methyl-3-pyridyl)-2-[(2S,5R)-5-methyl-2-(3-thienyl)-4-[1-(trifluoromethyl)cyclopropanecarbonyl]piperazin-1-yl]-2-oxo-acetamide] | < 7.30 | > 7.00 | 7.30 to 8.30 | > 125 | A (an IC50 ratio greater than or equal to 30 fold)
CCc1cc(NC(=O)C(=O)N2C[C@@H](C)N(C(=O)C3(C(F)(F)F)CC3)C[C@@H]2c2ccc(F)c(Cl)c2)cnc1N [Compound 139, N-(6-amino-5-ethylpyridin-3-yl)-2-((2S,5R)-2-(3-chloro-4-fluorophenyl)-5-methyl-4-(1-(trifluoromethyl)cyclopropanecarbonyl)piperazin-1-yl)-2-oxoacetamide] | 7.30 to 8.30 | > 7.00 | > 8.30 | < 75 | B (an IC50 ratio greater than or equal to 15 fold but lower than 30 fold)
CCc1cc(NC(=O)C(=O)N2C[C@@H](C)N(C(=O)C(C)(C)C)C[C@@H]2c2ccccc2)cnc1N [Compound 140, N-(6-amino-5-ethylpyridin-3-yl)-2-((2S,5R)-5-methyl-2-phenyl-4-pivaloylpiperazin-1-yl)-2-oxoacetamide] | 7.30 to 8.30 | > 7.00 | > 8.30 | < 75 | C (an IC50 ratio of less than 15 fold)
C[C@@H]1CN(C(=O)C(=O)Nc2cncc3cn[nH]c23)[C@@H](c2ccc(N3CCN(C)CC3)cc2)CN1C(=O)C(C)(C)C [Compound 142, 2-((2S,5R)-5-methyl-2-(4-(4-methylpiperazin-1-yl)phenyl)-4-pivaloylpiperazin-1-yl)-2-oxo-N-(1H-pyrazolo[4,3-c]pyridin-7-yl)acetamide] | < 7.30 | > 7.00 | 7.30 to 8.30 | < 75 | C (an IC50 ratio of less than 15 fold)
Cc1cc(NC(=O)C(=O)N2C[C@@H](C)N(C(=O)C3(C)CC3)C[C@@H]2c2ccccc2)cnc1N [Compound 143, N-(6-amino-5-methylpyridin-3-yl)-2-((2S,5R)-5-methyl-4-(1-methylcyclopropanecarbonyl)-2-phenylpiperazin-1-yl)-2-oxoacetamide] | < 7.30 | > 7.00 | 7.30 to 8.30 | > 125 | C (an IC50 ratio of less than 15 fold)
CCc1cc(NC(=O)C(=O)N2C[C@@H](C)N(C(=O)OC(C)(C)C)C[C@@H]2c2ccc(F)cc2)cnc1N [Compound 145, (2R,5S)-tert-butyl 4-(2-((6-amino-5-ethylpyridin-3-yl)amino)-2-oxoacetyl)-5-(4-fluorophenyl)-2-methylpiperazine-1-carboxylate] | < 7.30 | > 7.00 | 7.30 to 8.30 | < 75 | B (an IC50 ratio greater than or equal to 15 fold but lower than 30 fold)
C[C@@H]1CN(C(=O)C(=O)Nc2cncc3[nH]ncc23)[C@@H](c2ccccc2)CN1C(=O)C1(C)CC1 [Compound 147, 2-((2S,5R)-5-methyl-4-(1-methylcyclopropanecarbonyl)-2-phenylpiperazin-1-yl)-2-oxo-N-(1H-pyrazolo[3,4-c]pyridin-4-yl)acetamide] | < 7.30 | 6.00 to 7.00 | > 8.30 | > 125 | A (an IC50 ratio greater than or equal to 30 fold)
CCc1cc(NC(=O)C(=O)N2C[C@@H](C)N(C(=O)C3(C(F)(F)F)CC3)C[C@@H]2c2cccc(C(F)(F)F)c2)cnc1N [Compound 150, N-(6-amino-5-ethylpyridin-3-yl)-2-((2S,5R)-5-methyl-4-(1-(trifluoromethyl)cyclopropanecarbonyl)-2-(3-(trifluoromethyl)phenyl)piperazin-1-yl)-2-oxoacetamide] | < 7.30 | > 7.00 | 7.30 to 8.30 | > 125 | A (an IC50 ratio greater than or equal to 30 fold)
C[C@@H]1CN(C(=O)C(=O)Nc2cnc(N)c(C3CC3)c2)[C@@H](c2ccc(F)cc2)CN1C(=O)C(C)(C)C [Compound 152, N-(6-amino-5-cyclopropylpyridin-3-yl)-2-((2S,5R)-2-(4-fluorophenyl)-5-methyl-4-pivaloylpiperazin-1-yl)-2-oxoacetamide] | 7.30 to 8.30 | > 7.00 | > 8.30 | 75 to 125 | C (an IC50 ratio of less than 15 fold)
CCC(=O)N1C[C@H](c2ccc(F)cc2)N(C(=O)C(=O)Nc2cnc(N)c(C3CC3)c2)C[C@H]1C [Compound 153] | < 7.30 | 6.00 to 7.00 | 7.30 to 8.30 | > 125 | B (an IC50 ratio greater than or equal to 15 fold but lower than 30 fold)
Cc1cc(NC(=O)C(=O)N2C[C@@H](C)N(CC(C)C)C[C@@H]2c2ccc(F)cc2)cnc1N [Compound 154, N-(6-amino-5-methyl-3-pyridyl)-2-[(2S,5R)-2-(4-fluorophenyl)-4-isobutyl-5-methyl-piperazin-1-yl]-2-oxo-acetamide] | < 7.30 | < 6.00 | < 7.30 | > 125 | C (an IC50 ratio of less than 15 fold)
C[C@@H]1CN(C(=O)C(=O)Nc2cncc3cn[nH]c23)[C@@H](c2ccccc2)CN1C(=O)C(C)(C)C [Compound 156, 2-((2S,5R)-5-methyl-2-phenyl-4-pivaloylpiperazin-1-yl)-2-oxo-N-(1H-pyrazolo[4,3-c]pyridin-7-yl)acetamide] | 7.30 to 8.30 | > 7.00 | > 8.30 | < 75 | C (an IC50 ratio of less than 15 fold)
Cc1cc(NC(=O)C(=O)N2C[C@@H](C)N(C(=O)C(C)C)C[C@@H]2c2ccc(F)c(F)c2)cnc1N [Compound 158, N-(6-amino-5-methylpyridin-3-yl)-2-((2S,5R)-2-(3,4-difluorophenyl)-4-isobutyryl-5-methylpiperazin-1-yl)-2-oxoacetamide] | < 7.30 | 6.00 to 7.00 | 7.30 to 8.30 | > 125 | A (an IC50 ratio greater than or equal to 30 fold)
CC(C)C(=O)N1C[C@@H](c2ccc(F)c(F)c2)N(C(=O)C(=O)Nc2cnc(N)c(C3CC3)c2)C[C@H]1C [Compound 160, N-(6-amino-5-cyclopropylpyridin-3-yl)-2-((5R)-2-(3,4-difluorophenyl)-4-isobutyryl-5-methylpiperazin-1-yl)-2-oxoacetamide] | < 7.30 | < 6.00 | < 7.30 | > 125 | C (an IC50 ratio of less than 15 fold)
C[C@@H]1CN(C(=O)C(=O)Nc2cnc(N)c3c2cnn3C)[C@@H](c2ccccc2)CN1C [Compound 164, N-(7-Amino-1-methyl-pyrazolo[3,4-c]pyridin-4-yl)-2-oxo-2-[(2S,5R)-4,5-dimethyl-2-phenyl-piperazin-1-yl]acetamide] | < 7.30 | > 7.00 | 7.30 to 8.30 | 75 to 125 | A (an IC50 ratio greater than or equal to 30 fold)
C[C@@H]1CN(C(=O)C(=O)Nc2cnc(N)c3c2cnn3C)[C@@H](c2ccccc2)CN1C(=O)C1(C)CC1 [Compound 169, N-(7-Amino-1-methyl-pyrazolo[3,4-c]pyridin-4-yl)-2-oxo-2-[(2S,5R)-5-methyl-4-(1-methylcyclopropanecarbonyl)-2-phenyl-piperazin-1-yl]acetamide] | 7.30 to 8.30 | > 7.00 | > 8.30 | < 75 | C (an IC50 ratio of less than 15 fold)
